Measurements from article PMC8879095, “UHPLC-MS/MS Analysis of Antibiotics Transfer and Concentrations in Porcine Oral Fluid after Intramuscular Application” (Pharmaceuticals, 2022).
Read-outs that look alike come from different tables or passages of the source.

What was measured:
[1] = Antibiotic concentrations in porcine oral fluid after intramuscular application (UHPLC-MS/MS); type: in vivo; conditions: pigs, i.m.
Protocol: All animals were born in the sow farm (8000 DanBred sows) located in Northern Poland, after crossing ♀(♂Landrace × ♀Yorskshire) × ♂Duroc. Piglets were weaned after 4 weeks of lactation with an average weight of 6 kg and then moved to the weaner stable (23,000 weaners). After the next 7 weeks, animals were transported to the 9000-places fattening farm with an average body weight of 28 kg, where the trial was performed. All farms in the aforementioned three-phase model used weekly batches and an all-in all-out system. Specialist veterinary and production management care were provided in each location.
For the purpose of the study, 240 immunologically castrated boars were divided into 8 groups, 30 animals in each pen. For the control group, 30 pigs were used in separate pens. Their initial body weight was between 40 and 60 kg. Pigs were housed at 20–25 °C. Fatteners were fed ad libitum with antimicrobial-free water and feed provided by feeders throughout the study. Before the experiment, water and feed were checked for antimicrobials, and no antimicrobial treatments were administered to these pigs before. All animals in one pen were treated due to the same health issue using disposable needles and the same drug and dosage. Pens were separated from each other with concrete walls. The drugs and dosage administered to each experimental group with an indication of withdrawal period for tissues are listed in Table 3. The oral fluid samples were collected using three cotton ropes (70 cm length with 1 cm diameter) in each pen suspended separately for 25 min on the front wall of the pen with bottoms at the pigs’ shoulder height, away from water and feed.
The research material was one pooled sample of oral fluid from 10 pigs, in triplicate, per pen. Ropes were removed immediately after collection. The first oral fluid sample was collected 24 h after the first injection. The collection of each subsequent sample took place at the same time (11:30 A.M.) for 35 consecutive days. Additionally, oral fluid samples were collected from pigs not treated with any antibiotics. Oral fluid from each pen was pooled into one 50-mL Falcon plastic tube and centrifuged at 9447× rcf for 15 min. Centrifuged material was transferred to a 15 mL plastic tube and frozen at −20 °C until analysis.
Before the analysis, the oral fluid samples were centrifuged at 9447× rcf. Next, an aliquot (1 mL) of oral fluid was placed into a 2 mL polypropylene centrifuge tube, and the 30 µL of the internal standard at the concentration of 2 µg/mL was added. For the extraction of analysed antibiotics, 600 µL of 0.5% formic acid was added, vortexed for 30 s and centrifuged for 10 min at 9447× rcf. Then, the supernatant was filtered through a […] PVDF filter into an amber glass vial before chromatographic analysis.
The mass spectrometry detection was operated in the positive ESI mode with multiple reaction monitoring (MRM).

[2] = cited from earlier work

Compound: C=C[C@]1(C)C[C@@H](OC(=O)CSCCN(CC)CC)[C@]2(C)[C@H](C)CC[C@]3(CCC(=O)[C@H]32)[C@@H](C)[C@@H]1O [TIAM, tiamulin]
- concentration at 1 d ([1]; male, (Landrace × Yorkshire) × Duroc crossbred (DanBred sows), pig, intramuscular, oral fluid, first day of medication (abstract), read-out: concentration in oral fluid on the first day of medication): 7600 ng/g
- concentration at 1 d ([1]; male, (Landrace × Yorkshire) × Duroc crossbred (DanBred sows), pig, intramuscular, oral fluid, time 1 d (24 h after first injection), treatment period, read-out: Avarage Concentrations in oral fluid): 7600 ng/mL
- concentration at 2 d ([1]; male, (Landrace × Yorkshire) × Duroc crossbred (DanBred sows), pig, intramuscular, oral fluid, time 2 d, treatment period, read-out: Avarage Concentrations in oral fluid): 2520 ± 355 ng/mL
- concentration at 3 d ([1]; male, (Landrace × Yorkshire) × Duroc crossbred (DanBred sows), pig, intramuscular, oral fluid, time 3 d, treatment period, read-out: Avarage Concentrations in oral fluid): 2460 ± 311 ng/mL
- concentration at 4 d ([1]; male, (Landrace × Yorkshire) × Duroc crossbred (DanBred sows), pig, intramuscular, oral fluid, time 4 d, posttreatment, read-out: Avarage Concentrations in oral fluid): 1560 ng/mL
- concentration at 5 d ([1]; male, (Landrace × Yorkshire) × Duroc crossbred (DanBred sows), pig, intramuscular, oral fluid, time 5 d, posttreatment, read-out: Avarage Concentrations in oral fluid): 1540 ± 233 ng/mL
- concentration at 6 d ([1]; male, (Landrace × Yorkshire) × Duroc crossbred (DanBred sows), pig, intramuscular, oral fluid, time 6 d, posttreatment, read-out: Avarage Concentrations in oral fluid): 2960 ± 299 ng/mL
- concentration at 7 d ([1]; male, (Landrace × Yorkshire) × Duroc crossbred (DanBred sows), pig, intramuscular, oral fluid, time 7 d, posttreatment, read-out: Avarage Concentrations in oral fluid): 2570 ± 254 ng/mL
- concentration at 8 d ([1]; male, (Landrace × Yorkshire) × Duroc crossbred (DanBred sows), pig, intramuscular, oral fluid, time 8 d, posttreatment, read-out: Avarage Concentrations in oral fluid): 875 ± 156 ng/mL
- concentration at 9 d ([1]; male, (Landrace × Yorkshire) × Duroc crossbred (DanBred sows), pig, intramuscular, oral fluid, time 9 d, posttreatment, read-out: Avarage Concentrations in oral fluid): 567 ± 111 ng/mL
- concentration at 10 d ([1]; male, (Landrace × Yorkshire) × Duroc crossbred (DanBred sows), pig, intramuscular, oral fluid, time 10 d, posttreatment, read-out: Avarage Concentrations in oral fluid): 621 ± 124 ng/mL
- concentration at 11 d ([1]; male, (Landrace × Yorkshire) × Duroc crossbred (DanBred sows), pig, intramuscular, oral fluid, time 11 d, posttreatment, read-out: Avarage Concentrations in oral fluid): 279 ± 66 ng/mL
- concentration at 12 d ([1]; male, (Landrace × Yorkshire) × Duroc crossbred (DanBred sows), pig, intramuscular, oral fluid, time 12 d, posttreatment, read-out: Avarage Concentrations in oral fluid): 254 ± 69 ng/mL
- concentration at 13 d ([1]; male, (Landrace × Yorkshire) × Duroc crossbred (DanBred sows), pig, intramuscular, oral fluid, time 13 d, posttreatment, read-out: Avarage Concentrations in oral fluid): 138 ± 43 ng/mL
- concentration at 14 d ([1]; male, (Landrace × Yorkshire) × Duroc crossbred (DanBred sows), pig, intramuscular, oral fluid, time 14 d, posttreatment, read-out: Avarage Concentrations in oral fluid): 269 ± 71 ng/mL
- concentration at 15 d ([1]; male, (Landrace × Yorkshire) × Duroc crossbred (DanBred sows), pig, intramuscular, oral fluid, time 15 d, posttreatment, read-out: Avarage Concentrations in oral fluid): 156 ± 41 ng/mL
- concentration at 16 d ([1]; male, (Landrace × Yorkshire) × Duroc crossbred (DanBred sows), pig, intramuscular, oral fluid, time 16 d, posttreatment, read-out: Avarage Concentrations in oral fluid): 279 ± 68 ng/mL
- concentration at 17 d ([1]; male, (Landrace × Yorkshire) × Duroc crossbred (DanBred sows), pig, intramuscular, oral fluid, time 17 d, posttreatment, read-out: Avarage Concentrations in oral fluid): 182 ± 49 ng/mL
- concentration at 18 d ([1]; male, (Landrace × Yorkshire) × Duroc crossbred (DanBred sows), pig, intramuscular, oral fluid, time 18 d, posttreatment, read-out: Avarage Concentrations in oral fluid): 176 ± 52 ng/mL
- concentration at 19 d ([1]; male, (Landrace × Yorkshire) × Duroc crossbred (DanBred sows), pig, intramuscular, oral fluid, time 19 d, posttreatment, read-out: Avarage Concentrations in oral fluid): 202 ± 45 ng/mL
- concentration at 20 d ([1]; male, (Landrace × Yorkshire) × Duroc crossbred (DanBred sows), pig, intramuscular, oral fluid, time 20 d, posttreatment, read-out: Avarage Concentrations in oral fluid): 133 ± 36 ng/mL
- concentration at 21 d ([1]; male, (Landrace × Yorkshire) × Duroc crossbred (DanBred sows), pig, intramuscular, oral fluid, time 21 d, posttreatment, read-out: Avarage Concentrations in oral fluid): 148 ± 32 ng/mL
- concentration at 22 d ([1]; male, (Landrace × Yorkshire) × Duroc crossbred (DanBred sows), pig, intramuscular, oral fluid, time 22 d, posttreatment, read-out: Avarage Concentrations in oral fluid): 220 ± 44 ng/mL
- concentration at 23 d ([1]; male, (Landrace × Yorkshire) × Duroc crossbred (DanBred sows), pig, intramuscular, oral fluid, time 23 d, posttreatment, read-out: Avarage Concentrations in oral fluid): 146 ± 29 ng/mL
- concentration at 24 d ([1]; male, (Landrace × Yorkshire) × Duroc crossbred (DanBred sows), pig, intramuscular, oral fluid, time 24 d, posttreatment, read-out: Avarage Concentrations in oral fluid): 310 ± 55 ng/mL
- concentration at 25 d ([1]; male, (Landrace × Yorkshire) × Duroc crossbred (DanBred sows), pig, intramuscular, oral fluid, time 25 d, posttreatment, read-out: Avarage Concentrations in oral fluid): 193 ± 33 ng/mL
- concentration at 26 d ([1]; male, (Landrace × Yorkshire) × Duroc crossbred (DanBred sows), pig, intramuscular, oral fluid, time 26 d, posttreatment, read-out: Avarage Concentrations in oral fluid): 66.4 ± 12 ng/mL
- concentration at 27 d ([1]; male, (Landrace × Yorkshire) × Duroc crossbred (DanBred sows), pig, intramuscular, oral fluid, time 27 d, posttreatment, read-out: Avarage Concentrations in oral fluid): 54.3 ± 14 ng/mL
- concentration at 28 d ([1]; male, (Landrace × Yorkshire) × Duroc crossbred (DanBred sows), pig, intramuscular, oral fluid, time 28 d, posttreatment, read-out: Avarage Concentrations in oral fluid): 35.8 ± 17 ng/mL
- concentration at 29 d ([1]; male, (Landrace × Yorkshire) × Duroc crossbred (DanBred sows), pig, intramuscular, oral fluid, time 29 d, posttreatment, read-out: Avarage Concentrations in oral fluid): 40.6 ± 21 ng/mL
- concentration at 30 d ([1]; male, (Landrace × Yorkshire) × Duroc crossbred (DanBred sows), pig, intramuscular, oral fluid, time 30 d, posttreatment, read-out: Avarage Concentrations in oral fluid): 46.9 ng/mL
- Avarage Concentrations in oral fluid ([1]; oral fluid, time 1 d (24 h after first injection), treatment period): 7600 ± 1055 µg/L
- Avarage Concentrations in oral fluid ([1]; oral fluid, time 4 d, posttreatment): 1560 ± 225 µg/L
- Avarage Concentrations in oral fluid ([1]; oral fluid, time 30 d, posttreatment): 46.9 ± 19 µg/L
- distribution to oral fluid ([1]; conclusion in words): high distribution
- pKa [2]: 7.6
